# Like-named read-outs stand apart in the source and are kept apart here. Ends that are not written are not given here.
# What was measured:
# BJ fibroblasts [1] = assay: Secondary test: protection of cells from hydrogen peroxide oxidative stress, viability by Alamar Blue; format: cell-based, human; details: 4 μM hit for 24 hours; 980 μM hydrogen peroxide for four hours; viability 24 hours following treatment (FIG. 11c)
# Protocol: (§1) For comparison with Alamar Blue™ (Invitrogen, Carlsbad, Calif.), cells in a 96-well plate were washed with PBS followed by four hours of incubation with Alamar Blue diluted 1:10 in normal media according to the manufacturer's instructions. Alamar Blue fluorescence was assayed in a plate reader using excitation and emission wavelengths 540 nm and 590 nm, respectively.
# (§2) A secondary test was performed to evaluate the ability of each hit to protect cells from oxidative stress. Cells in 96-well plates were incubated with hits dissolved to 4 μM in cell media for 24 hours (three wells per compound). Cells were then washed once with PBS, and treated with hydrogen peroxide dissolved in cell media for four hours. Cells were then washed once with PBS, and cell viability was assayed with Alamar Blue.
# (§3) Control cells were not treated with hydrogen peroxide. Every other category, including DMSO, was treated with 240 μM hydrogen peroxide for four hours prior to viability assessment with Alamar Blue. P-value for 10E4 vs. DMSO is 0.04, p-value for 10E4 vs. control is 0.98, and p-value for DMSO vs. control is 0.02. […] Control cells were not treated with hydrogen peroxide. DMSO pre-treated cells and every other category was treated with 980 μM hydrogen peroxide for four hours prior to the addition of Alamar Blue. […]
# H9C2 cells = assay: as above; format: cell-based, rat; details: 4 μM hit for 24 hours; 24 hours after treatment with 600 μM hydrogen peroxide (FIG. 11b)
# Protocol: as §1, §2, §3
# BJ fibroblasts [2] = assay: Reductide plate reader assay in cells (FAM signal after treatment with redox-modifying agents); format: cell-based, human; details: for reductide FAM signal, % of control at 50 µM: Homo sapiens, Fibroblast, 50 μM compound for 24 hours, then reductide 1.5 μM for four hours, in comparison with vehicle treated cells, read-out: % change from control (reductide FAM signal)
# Protocol: BJ fibroblasts were trypsinized and re-plated in a 96-well plate (5,000 cells/well) in normal growth medium and allowed to attach overnight. Media was replaced with normal media supplemented with the chemical redox-modifying agent indicated in the “Results” section for the indicated duration of treatment. Cells were subsequently washed one time with PBS and media was replaced with normal media supplemented with reductide 1 μM.
# BJ fibroblasts in 96-well plates were pretreated with various redox-modifying agents followed by washing, incubation with reductide, and assessment of fluorescence by plate reader. […] However, following twenty-four hours of treatment with H2O2, FAM signal was increased for BJ fibroblasts treated with 200-400 μM H2O2 (FIG. 4D) but decreased with higher doses.
# Although glutathione is the most abundant intracellular redox buffering system, the protein thioredoxin also acts as an important redox buffer. In order to test whether uptake and reduction of reductide is affected by glutathione status, thioredoxin status, or both, BJ fibroblasts were treated with the specific inhibitor of thioredoxin reductase, aurothioglucose, the inhibitor of glutathione biosynthesis, 1-buthionine sulfoximine (BSO), or both for 24 hours followed by washing, incubation with reductide for four hours, and plate reader assay. […] Thus, uptake and reduction of reductide depends on both glutathione and thioredoxin systems.
# In another test to determine whether uptake and reduction of reductide is affected by glutathione status, BJ fibroblasts were treated with 1-buthionine sulfoximine (BSO), an inhibitor of glutathione biosynthesis, or diamide, a thiol oxidizing agent that decreases the cellular GSH to GSSG ratio. […] The following day, cells were treated with the glutathione biosynthesis inhibitor 1-buthionine sulfoximine (BSO) (FIG. 6a) or the thiol oxidizing agent diamide (FIG. 6b) in normal media also containing reductide 1 μM.
# The following day, cells were incubated in normal cell media supplemented with 50 μM of a redox-modifying compound from the redox library distributed from Enzo Life Sciences. Each redox compound was used to treat three wells for 24 hours. Afterward, cells were washed with PBS followed by incubation in reductide 1 μM dissolved in normal media for four hours. FAM signal from reduction of reductide's disulfide bond was assayed in a plate reader. Most compounds in the library are classified as antioxidants. […] It should be noted that the screening conditions (50 μM concentration, 24 hour drug incubation) were not optimized for each drug individually. That many antioxidants can act as pro-oxidants if their concentration is sufficiently high is well known. […] When retested at new concentrations, different results were obtained (FIG. 10a-c), showing an increase in signal expected for reduction.
# Cells were subsequently washed with PBS and incubated with reductide 1.5 μM dissolved in cell media for four hours. FAM signal was assayed in a plate reader. The redox modifying compounds were obtained as an 84 compound library from Enzo Life Sciences. Percentage change in reductide signal in comparison with vehicle treated cells are shown for a subset of the redox modifying compounds.
# IMR90 fibroblasts [3] = test system: IMR90 fibroblasts
# Protocol: For comparison with monochlorobimane, IMR90 fibroblasts were seeded into a 96 well plate at a density of 50,000 cells per well and attached overnight. Cells were incubated for 60 minutes in media containing NAC or H2O2 at the indicated concentrations. Cells were washed twice in 200 μl of PBS. Monochlorobimane was used to assay reduced GSH content in half the wells using the Glutathione Assay Kit available from Sigma (CS 1020, St. Louis, Mo., USA), following the manufacturer's instructions for use in live cells in a plate reader. At the same time, reductide was dissolved in the same assay buffer used for monochlorobimane treatment and added to half of the wells at a concentration of 1 μM. Fluorimetric readings were performed in a Synergy HT plate reader using excitation and emission wavelengths of 485 nm/528 nm for reductide and 390 nm/478 nm for monochlorobimane. Each cell condition was triplicated, and each experiment was repeated two times.
# Reductide (FIG. 8a) is compared with monochlorobimane (FIG. 8b), which is non-fluorescent unless conjugated to low molecular weight thiols, in IMR90 fibroblasts following pretreatment with NAC or H2O2. Cells were seeded into a 96-well plate at a density of 50,000 cells per well and allowed to attach overnight. […]
# IMR90 fibroblasts [4] = assay: Flow cytometry of cells incubated with reductide (TAMRA, FAM, DAPI, side-scatter); format: cell-based, human
# Protocol: IMR90 fibroblasts were seeded onto six 10 cm dishes at a density of 1.8×10^6 cells and allowed to attach overnight. Three dishes were treated with H2O2 600 μM and another three with NAC 4 mM, each in normal media, for one hour. Cells were washed with PBS followed by incubation with reductide 1 μM in normal media for 3, 15, or 30 minutes. Cells were then washed again with PBS followed by trypsinization and collection in normal media without phenol red. Cell concentration was 10^6 per ml. DAPI was added at 1:500 dilution and cells were analyzed by flow cytometry for TAMRA and FAM fluorescence.
# IMR90 cells were seeded into 10 cm dishes at a density of 1.8×106 and allowed to attach overnight. The following day, cells were pretreated with NAC 4 mM or H2O2 600 μM for 60 minutes prior to peptide incubation.
# [5] = within 30 minutes of incubation; cited from earlier work
# [6] = treated for 24 hours, washing, reductide for four hours (FIG. 5)
# [7] = treated in normal media also containing reductide 1 μM (FIGS. 6a-b)
# [8] = pretreatment at varied concentration, washing, incubation with reductide (FIG. 4A, 4B)
# [9] = 50 μM for 24 hours, then reductide 1 μM for four hours
# [10] = retested at lower concentrations (FIG. 10a-c)
molecule,measurement,setting,value
"C=C(C)C(=O)C(=CC(=O)O)OC [3E7, penicillic acid]",viability vs. control (not treated with hydrogen peroxide),BJ fibroblasts [1],significantly higher than control
"CN(C)C(=S)SSC(=S)N(C)C [9B11, thiram]",viability signal vs. DMSO,H9C2 cells,significantly higher than DMSO
"CC(=O)O[C@@H]1C[C@@]2(C)[C@H](c3ccoc3)C[C@H]3O[C@]32[C@]2(C)C(=O)C(O)=C3C(C)(C)C(=O)C=C[C@]3(C)[C@@H]12 [20B8, anthothecol]",viability signal vs. DMSO,H9C2 cells,significantly higher than DMSO
"CCCCS(=N)(=O)CCC(N)C(=O)O (centres unmarked) [BSO, 1-buthionine sulfoximine]",reductide FAM signal,BJ fibroblasts [2]; [6],significant increase in signal
same,reductide FAM signal,BJ fibroblasts [2]; [7],significant decrease in reductide FAM signal
"O=[N+]([O-])c1ccc(Cl)c([N+](=O)[O-])c1 [CDNB, 1-chloro-2,4-dinitrobenzene]",FAM signal after pretreatment,BJ fibroblasts [2]; [8],decreased in proportion to the concentration
O=c1c2ccccc2[se]n1-c1ccccc1 [Ebselen],"reductide FAM signal, % of control at 50 µM",BJ fibroblasts [2],77.2%
CCOc1ccc2c(c1)C(C)=CC(C)(C)N2 [Ethoxyquin],"reductide FAM signal, % of control at 50 µM",BJ fibroblasts [2],155%
Cc1cc(Cc2cc(C)cc(C(C)(C)C)c2O)c(O)c(C(C)(C)C)c1 [GERI-BP002A],FAM signal relative to vehicle treated cells,BJ fibroblasts [2]; [9],significant decrease in FAM signal
same,FAM signal relative to vehicle treated cells,BJ fibroblasts [2]; [10],increase in FAM signal consistent with reduction
"OO [H2O2, hydrogen peroxide]",FAM signal following incubation with reductide,IMR90 fibroblasts [3]; pretreatment 600 μM for 60 minutes (FIG. 8a),significant decrease in FAM signal
same,FAM signal following incubation with reductide,IMR90 fibroblasts [3]; pretreatment with low doses for 60 minutes (FIG. 8a),mild increases in FAM signal
same,nonviable cells by side-scatter or DAPI signal,"IMR90 fibroblasts [4]; reductide 1 μM for 3, 15 or 30 minutes vs. controls, H2O2 600 μM pretreatment for 60 minutes",No increase in nonviable cells
same,FAM signal after pretreatment,BJ fibroblasts [2]; four hours of incubation with H2O2 (FIG. 4C),decreased in proportion to H2O2 concentration
same,FAM signal after pretreatment,"BJ fibroblasts [2]; twenty-four hours of treatment, 200-400 μM H2O2 (FIG. 4D)",increased
same,FAM signal after pretreatment,"BJ fibroblasts [2]; twenty-four hours of treatment, higher doses than 200-400 μM (FIG. 4D)",decreased
COC1=C(OC)C(=O)C(CCCCCCCCCCO)=C(C)C1=O [Idebenone],"reductide FAM signal, % of control at 50 µM",BJ fibroblasts [2],121%
CCN1C(=O)C=CC1=O [N-Ethylmaleimide],"reductide FAM signal, % of control at 50 µM",BJ fibroblasts [2],-71.7%
"CC(=O)N[C@@H](CS)C(=O)O [NAC, N-acetylcysteine]",TAMRA signal (reductide uptake),"IMR90 fibroblasts [4]; pretreatment NAC 4 mM for 60 minutes, then reductide 1 μM",strongest
same,FAM signal after pretreatment,BJ fibroblasts [2]; [8],increased in proportion to the concentration
CCCCCCCCCCCCCCCC(=O)OC/C=C(C)/C=C/C=C(C)/C=C/C1=C(C)CCCC1(C)C [Retinyl palmitate],"reductide FAM signal, % of control at 50 µM",BJ fibroblasts [2],124%
CC1=C(C)C(=O)C(C(CCCCCC(=O)O)c2ccccc2)=C(C)C1=O (centres unmarked) [Seratrodast],"reductide FAM signal, % of control at 50 µM",BJ fibroblasts [2],135%
OC[C@H]1O[C@H]([S-])[C@H](O)[C@@H](O)[C@@H]1O.[Au+] [aurothioglucose],reductide FAM signal,BJ fibroblasts [2]; [6],small increase in reductide FAM signal that was not statistically significant
COc1ccccc1OCCNCC(O)COc1cccc2[nH]c3ccccc3c12 (centres unmarked) [carvedilol],FAM signal relative to vehicle treated cells,BJ fibroblasts [2]; [9],significant decrease in FAM signal
same,FAM signal relative to vehicle treated cells,BJ fibroblasts [2]; [10],increase in FAM signal consistent with reduction
CN(C)C(=O)/N=N/C(=O)N(C)C [diamide],reductide FAM signal,BJ fibroblasts [2]; [7],significant decrease in reductide FAM signal
C[Se]CC[C@H](N)C(=O)O [selenomethionine],FAM signal relative to vehicle treated cells,BJ fibroblasts [2]; all concentrations tested (FIG. 10a-c),significant increase in FAM signal consistent with reduction
CC1=C(/C=C/C(C)=C/C=C/C(C)=C/C=C/C=C(C)/C=C/C=C(C)/C=C/C2=C(C)CCCC2(C)C)C(C)(C)CCC1 [β-carotene],"reductide FAM signal, % of control at 50 µM",BJ fibroblasts [2],111%
KLALKLALKALKAALKLA-NH2 [MAP],internalized fraction,[5],60%
